Laboratory results published in patent US12570602B2, “Selective serotonin receptor modulators and methods of making and using the same” (Park City Bio, LLC, priority 2024, dated 2026).

Legend:
[1] = molecular target: T1, 5-HT2C receptor (Homo sapiens, UniProt P28335); test: Gq activation via Gq/γ1 dissociation BRET, 5-HT2C; assay type: cell-based; details: primary signaling for 5-HT2C via Gq-coupled mechanism compared to B-arrestin
T1 construct: expressed in transfected cells; host or cells: HEK293T
T1 sequence (P28335 33-458): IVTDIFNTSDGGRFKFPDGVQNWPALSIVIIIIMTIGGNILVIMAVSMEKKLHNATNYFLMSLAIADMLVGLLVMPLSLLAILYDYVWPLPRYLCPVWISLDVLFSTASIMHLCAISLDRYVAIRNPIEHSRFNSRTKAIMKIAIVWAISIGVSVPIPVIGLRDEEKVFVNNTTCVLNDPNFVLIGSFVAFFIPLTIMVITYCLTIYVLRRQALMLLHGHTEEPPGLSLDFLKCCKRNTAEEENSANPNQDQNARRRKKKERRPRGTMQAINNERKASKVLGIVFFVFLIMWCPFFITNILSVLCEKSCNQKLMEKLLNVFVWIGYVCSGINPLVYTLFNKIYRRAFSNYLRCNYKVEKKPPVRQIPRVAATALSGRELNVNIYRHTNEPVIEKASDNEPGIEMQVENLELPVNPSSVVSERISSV
Text: (§1) To measure 5-HT2 receptor-mediated Gq activation via Gq/y1 dissociation as measured by Bioluminescence Resonance Energy Transfer (BRET) (McCorvy J D, Wacker D, Wang S, Agegnehu B, Liu J, Lansu K, Tribo A R, Olsen R H J, Che T, Jin J, Roth B L. Structural determinants of 5-HT2B receptor activation and biased agonism. Nat Struct Mol Biol. 2018; 25(9): 787-96), HEK293T cells were sub-cultured in Dulbecco's Modified Eagle Medium (DMEM) supplemented with 10% dialyzed fetal bovine serum (FBS) and were co-transfected in a 1:1:1:1 ratio with Rluc8-fused human Gaq (Gaq-Rluc8), a GFP2-fused to the C-terminus of human Gy1 (Gy1-GFP2), human GI31, and 5-HT2 receptor using TransiT-2020. After at least 18-24 hours, transfected cells were plated in poly-lysine coated 96-well white clear bottom cell culture plates in DMEM containing 1% dialyzed FBS at a density of 25,000-40,000 cells in 200 μL per well and incubated overnight. The following day, medium was decanted, and cells were washed with 60 μL of drug buffer (1×HBSS, 20 mM HEPES, pH 7.4), then 60 μL of drug buffer was added per well. Cells were pre-incubated at in a humidified atmosphere at 37° C. before receiving drug stimulation. […] Substrate addition occurred 15 minutes before reading and utilized 10 μL of the Rluc substrate coelenterazine 400a for Gq dissociation BRET^2 (Prolume/Nanolight, 5 μM final concentration). Plates were read for luminescence at 400 nm and fluorescent GFP2 emission at 510 nm at 1 second per well using a Mithras LB940 multimode microplate reader (e.g. one provided by Berthold). The BRET ratios of fluorescence/luminescence were calculated per well and were plotted as a function of drug concentration using Graphpad Prism 8 (Graphpad Software Inc., San Diego, CA). Data were normalized to % 5-HT stimulation and analyzed using nonlinear regression “log(agonist) vs. response” to yield Emax and EC50 parameter estimates. […]

[2] = molecular target: T2, 5-HT2A receptor (Homo sapiens, UniProt P28223); test: Gq activation via Gq/γ1 dissociation BRET, 5-HT2A; assay type: cell-based; details: hallucinogenic or non-hallucinogenic plastogenic effect predicted from level of 5-HT2A agonist efficacy
T2 construct: expressed in transfected cells; host or cells: HEK293T
Text: as §1

T2 sequence (P28223 whole entry): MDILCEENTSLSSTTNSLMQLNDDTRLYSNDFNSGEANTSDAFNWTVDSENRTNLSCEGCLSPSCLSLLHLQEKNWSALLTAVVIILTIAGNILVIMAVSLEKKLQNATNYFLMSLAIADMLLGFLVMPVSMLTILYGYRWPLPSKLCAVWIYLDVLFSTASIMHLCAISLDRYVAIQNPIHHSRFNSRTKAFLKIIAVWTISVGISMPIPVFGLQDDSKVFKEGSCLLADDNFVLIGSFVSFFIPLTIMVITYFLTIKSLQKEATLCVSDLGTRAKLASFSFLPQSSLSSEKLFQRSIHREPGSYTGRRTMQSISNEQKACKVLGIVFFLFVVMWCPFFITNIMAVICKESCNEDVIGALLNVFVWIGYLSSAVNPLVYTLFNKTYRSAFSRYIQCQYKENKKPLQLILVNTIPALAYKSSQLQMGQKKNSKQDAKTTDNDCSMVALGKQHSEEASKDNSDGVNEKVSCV

SMILES | 5-HT2C Gq signaling bias? [1] | Hall or N-Hall? [2]
CNC[C@H]1C[C@@H]1c1cc(F)ccc1OC | Yes | N-Hall
CNCC1CC1c1cc(F)ccc1SC (stereo not drawn) | Yes | N-Hall
CSc1ccc(F)cc1C1CC1CN(C)C (stereo not drawn) | Yes | N-Hall
